# Test results from US20250074901A1, “NOVEL HETEROARYL COMPOUNDS” (ICAGEN, LLC, priority 2021, published 2025).
# Molecular target: T1, Kv7.2 (Homo sapiens, UniProt O43526)
# T1 construct: expressed in transfected cells
# Experiment: Activation of Kv7.2 (in vitro assay, concentration response curve)
# Format: cell-based
# Settings: for Emax: Kv7.2 activation max %; for EC50: activation of Kv7.2
# Experimental: The term “EC50” in this application is defined as: the agonistic effect of a compound can be determined by testing the compound in an in vitro assay as described herein, whereby the effect of the compound is measured across a range of compound concentrations. The resulting data is plotted as a concentration response curve, which typically follows a sigmoidal function, whereby the concentration of the compound is plotted on the x axis and the response (agonistic effect) is plotted on the y axis. The term “EC50” is the “half maximal effective concentration” and denotes the concentration of a particular compound required to obtain 50% of the maximum response (Emax) which is observed for that compound in the given in vitro assay.
SMILES,Emax,EC50
"O=C(NCc1ccnc(OC(F)F)c1)Nc1cccc(Cl)n1 [Example 84, 1-(6-chloropyridin-2-yl)-3-[[2-(difluoromethoxy)pyridin-4-yl]methyl]urea]",42%,210 nM
"O=C(NCc1ccnc(OC(F)F)c1)Nc1cccc(OC(F)F)c1 [Example 262, 1-[3-(difluoromethoxy)phenyl]-3-[[2-(difluoromethoxy)pyridin-4-yl]methyl]urea]",65%,3510 nM
"CC(Oc1cc(CNC(=O)N[C@H]2C[C@H](C(F)(F)F)C2)ccn1)C(F)(F)F (stereo partly drawn) [Example 221, 1-[(1r,3r)-3-(trifluoromethyl)cyclobutyl]-3-[[2-(1,1,1-trifluoropropan-2-yloxy)pyridin-4-yl]methyl]urea]",78%,70 nM
"COc1cccc(NC(=O)NCc2ccnc(OC(F)F)c2)c1 [Example 83, 1-[[2-(difluoromethoxy)pyridin-4-yl]methyl]-3-(3-methoxyphenyl)urea]",45%,2470 nM
"O=C(NCc1ccnc(OC(F)F)c1)NC12CCC(F)(CC1)CC2 [Example 48, 1-[[2-(difluoromethoxy)pyridin-4-yl]methyl]-3-(4-fluoro-1-bicyclo[2.2.2]octanyl)urea]",54%,160 nM
"O=C(NCc1ccnc(C(F)(F)F)c1)N[C@H]1C[C@H](C(F)(F)F)C1 [Example 58, 1-[(1r,3r)-3-(trifluoromethyl)cyclobutyl]-3-[[2-(trifluoromethyl)pyridin-4-yl]methyl]urea]",42%,340 nM
"O=C(NCc1ccnc(OCC(F)(F)F)c1)N[C@H]1C[C@@H](F)C1 [Example 269, 1-((1s,3s)-3-fluorocyclobutyl)-3-[[2-(2,2,2-trifluoroethoxy)pyridin-4-yl]methyl]urea]",46%,350 nM
"O=C(NCc1ccnc(OC(F)F)c1)NCC1(F)CCC1 [Example 40, 1-[[2-(difluoromethoxy)pyridin-4-yl]methyl]-3-[(1-fluorocyclobutyl)methyl]urea]",58%,640 nM
"COCC(Oc1cc(CNC(=O)N[C@H]2C[C@H](C(F)(F)F)C2)ccn1)C(F)(F)F (stereo partly drawn) [Example 281, 1-[[2-(1,1,1-trifluoro-3-methoxypropan-2-yl)oxypyridin-4-yl]methyl]-3-[3-(trifluoromethyl)cyclobutyl]urea]",59%,200 nM
"O=C(NCc1ccnc(OC(F)F)c1)NCC1(F)CCCC1 [Example 227, 1-[[2-(difluoromethoxy)pyridin-4-yl]methyl]-3-[(1-fluorocyclopentyl)methyl]urea]",49%,410 nM
"O=C(NCc1ccnc(OCC(F)(F)F)c1)N[C@H]1C[C@H](C(F)(F)F)C1 [Example 179, 1-[[2-(2,2,2-trifluoroethoxy)pyridin-4-yl]methyl]-3-[(1r,3r)-3-(trifluoromethyl)cyclobutyl]urea]",48%,20 nM
"O=C(NCc1ccnc(OC(F)F)c1)NC1CC(OC(F)(F)F)C1 (stereo not drawn) [Example 267, 1-[[2-(difluoromethoxy)pyridin-4-yl]methyl]-3-[3-(trifluoromethoxy)cyclobutyl]urea]",51%,290 nM
"O=C(NCc1ccnc(OC(F)F)c1)NCC12CC(C1)C2 [Example 31, 1-(1-bicyclo[1.1.1]pentanylmethyl)-3-[[2-(difluoromethoxy)pyridin-4-yl]methyl]urea]",57%,420 nM
"C[C@H](O)C(NC(=O)N[C@H]1C[C@H](C(F)(F)F)C1)c1ccnc(OC(F)F)c1 (stereo partly drawn) [Example 287, 1-[(2S)-1-[2-(difluoromethoxy)pyridin-4-yl]-2-hydroxypropyl]-3-[(1r,3r)-3-(trifluoromethyl)cyclobutyl]urea]",96%,740 nM
"O=C(NCc1ccnc(OC(F)F)c1)N[C@@H]1CC[C@H](C(F)(F)F)C1 [Example 146, 1-[[2-(difluoromethoxy)pyridin-4-yl]methyl]-3-[(1R,3S)-3-(trifluoromethyl)cyclopentyl]urea]",68%,160 nM
"O=C1CC2CCC(C1)C2NC(=O)NCc1ccnc(OC(F)F)c1 (racemic) [Example 139, 1-[[2-(difluoromethoxy)pyridin-4-yl]methyl]-3-[rac-(1R,5S)-3-oxo-8-bicyclo[3.2.1]octanyl]urea]",61%,5250 nM
"O=C(Nc1cccc(Cl)c1)N[C@@H](CO)c1ccnc(OCC(F)(F)F)c1 [Example 145, 1-(3-chlorophenyl)-3-[(1R)-2-hydroxy-1-[2-(2,2,2-trifluoroethoxy)pyridin-4-yl]ethyl]urea]",58%,80 nM
"O=C(NCc1ccnc(OC(F)F)c1)NN1CC2CCCC2C1 (stereo not drawn) [Example 114, 1-(3,3a,4,5,6,6a-hexahydro-1H-cyclopenta[c]pyrrol-2-yl)-3-[[2-(difluoromethoxy)pyridin-4-yl]methyl]urea]",68%,7430 nM

SMILES,Emax,EC50
"O=C(NCc1ccnc(OC(F)F)c1)Nc1cncc(Cl)n1 [Example 98, 1-(6-chloropyrazin-2-yl)-3-[[2-(difluoromethoxy)pyridin-4-yl]methyl]urea]",48%,810 nM
"O=C(NCc1ccnc(OC(F)F)c1)N[C@H]1CCC(F)(F)C1 [Example 116, 1-[(1S)-3,3-difluorocyclopentyl]-3-[[2-(difluoromethoxy)pyridin-4-yl]methyl]urea]",58%,320 nM
"O=C(NCc1ccnc(OC(F)F)c1)NCC1(C(F)(F)F)CCC1 [Example 237, 1-[[2-(difluoromethoxy)pyridin-4-yl]methyl]-3-[[1-(trifluoromethyl)cyclobutyl]methyl]urea]",54%,160 nM
"O=C(NCc1ccnc(OCC(F)(F)F)c1)NC12CC(F)(C1)C2 [Example 168, 1-(3-fluoro-1-bicyclo[1.1.1]pentanyl)-3-[[2-(2,2,2-trifluoroethoxy)pyridin-4-yl]methyl]urea]",59%,210 nM
"O=C(NCc1ccnc(OC(F)F)c1)NC1CCC2C1C2(F)F (racemic) [Example 73, 1-[[2-(difluoromethoxy)pyridin-4-yl]methyl]-3-[rac-(1R,5R)-6,6-difluoro-2-bicyclo[3.1.0]hexanyl]urea]",49%,250 nM
"O=C(NCc1ccnc(OC(F)F)c1)N[C@H]1CCC[C@H]1O (racemic) [Example 118, 1-[[2-(difluoromethoxy)pyridin-4-yl]methyl]-3-[rac-(1R,2S)-2-hydroxycyclopentyl]urea]",63%,7870 nM
"O=C(NCc1ccnc(OCC(F)(F)F)n1)N[C@H]1C[C@H](C(F)(F)F)C1 [Example 204, 1-[[2-(2,2,2-trifluoroethoxy)pyrimidin-4-yl]methyl]-3-[(1r,3r)-3-(trifluoromethyl)cyclobutyl]urea]",45%,340 nM
"O=C(NCc1ccnc(OC(F)F)c1)N[C@H]1CC[C@H](F)C1 [Example 239, 1-[[2-(difluoromethoxy)pyridin-4-yl]methyl]-3-[(1S,3S)-3-fluorocyclopentyl]urea]",57%,440 nM
"O=C(NCc1ccnc(-n2cccn2)c1)Nc1cccc(Cl)c1 [Example 4, 1-(3-chlorophenyl)-3-[(2-pyrazol-1-ylpyridin-4-yl)methyl]urea]",60%,430 nM
"[2H]C([2H])(NC(=O)NCc1ccnc(OC(F)F)c1)C1CCC1 [Example 125, 1-[cyclobutyl(dideuterio)methyl]-3-[[2-(difluoromethoxy)pyridin-4-yl]methyl]urea]",62%,750 nM
"C[C@H]1C[C@H](NC(=O)NCc2ccnc(OC(F)F)c2)C1 [Example 163, 1-[[2-(difluoromethoxy)pyridin-4-yl]methyl]-3-((1r,3r)-3-methylcyclobutyl)urea]",83%,240 nM
"CC(C)(C)CNC(=O)NCc1ccnc(OC(F)F)c1 [Example 29, 1-[[2-(difluoromethoxy)pyridin-4-yl]methyl]-3-(2,2-dimethylpropyl)urea]",63%,570 nM
"CC1CC(C)(C)CCC1NC(=O)NCc1ccnc(-n2ccnc2)c1 (stereo not drawn) [Example 9, 1-[(2-imidazol-1-ylpyridin-4-yl)methyl]-3-(2,4,4-trimethylcyclohexyl)urea]",53%,700 nM
"O=C(NCc1ccnc(OC(F)F)c1)NC1CCC2C(C1)C2(F)F (stereo not drawn) [Example 222, 1-(7,7-difluoro-3-bicyclo[4.1.0]heptanyl)-3-[[2-(difluoromethoxy)pyridin-4-yl]methyl]urea]",76%,180 nM
"CC(C)(C)CCNC(=O)NCc1ccnc(OC(F)F)c1 [Example 109, 1-[[2-(difluoromethoxy)pyridin-4-yl]methyl]-3-(3,3-dimethylbutyl)urea]",51%,300 nM
"O=C(NCc1ccnc(OC(F)F)c1)NCC1(C(F)F)CCC1 [Example 191, 1-[[2-(difluoromethoxy)pyridin-4-yl]methyl]-3-[[1-(difluoromethyl)cyclobutyl]methyl]urea]",68%,450 nM
"CC(CNC(=O)NCc1ccnc(OC(F)F)c1)OC(F)F (stereo not drawn) [Example 268, 1-[2-(difluoromethoxy)propyl]-3-[[2-(difluoromethoxy)pyridin-4-yl]methyl]urea]",39%,1880 nM
"O=C(NCc1ccnc(OC(F)F)c1)N[C@@H]1C[C@H]2CCC[C@H]2C1 [Example 190, 1-[[2-(difluoromethoxy)pyridin-4-yl]methyl]-3-[(2s,3aR,6aS)-1,2,3,3a,4,5,6,6a-octahydropentalen-2-yl]urea]",85%,30 nM
